Laboratory results as given in US5135849A, “In-vitro methods for identifying compositions which are agonists and antagonists of androgens” (priority 1989, dated 1992).
Where two headings read alike, the source gives them in different places.

Tests used:
LNCaP cells [1] = assay: Phase 1 protocol to identify androgen agonist properties (LNCaP cell proliferation in CDHS medium); assay type: cell-based, human; conditions: for CHARACTERISTICS: classification from Phase 1 and Phase 2 protocols; for PHASE 1 CELL COUNT: final cell number per well at the optimal test conc.; for PHASE 1 CELL COUNT / cell yields compared with DHT alone, in words / OPTIMAL TEST CONC. (Phase 1): 10% CDHS; for agonistic / proliferative activity, in words: Phase 1 protocol, CDHS-supplemented media; for RELATIVE PROLIFERATIVE POTENCY: Table II, 5α-DHT = 1.0, 5 × 10^4 cell inoculum grown in CDHS for 8 days; for cell yields compared with DHT alone, in words: 3×10^-8 M
Source text: This protocol measures the potential agonistic properties of the substance under test. All manipulations are to be carried out under sterile conditions using disposable plastic tissue culture multiwell plates with all manipulations preferrably being performed in a tissue culture hood.
1. The cell line of choice is the LNCaP-FGC cell culture, an androgen-sensitive prostate tumor cell line. The LNaP cell line is routinely grown in 5% fetal bovine serum--supplemented Dulbecco's modified Eagle minimal essential medium (hereinafter "5% FBS/DME"), at 37° C. in a 95% air--5% CO2 atmosphere.
2. The cultured cells growing in 5% FBS/DME are harvested by treatment with trypsin (1:250)--EDTA (0.2%). The cells are detached by brief exposure to trypsin for about two minutes. To avoid excessive proteolysis, the reaction is quenched by addition of equal volumes of 5% FBS/DME. The resulting cell suspension is collected into a sterile centrifuge tube and resuspended by pipetting gently. The aliquots of this cell suspension thus obtained are dispersed by means of a Skatron dispenser into individual wells containing the seedling medium (1 ml of 5% FBS/DME per well) of a multiwell plate. Each final prepared suspension preferably contains 50,000 cells in a volume of 1.0 ml. It is desirable that the number of cells be counted and verified by means of a Coulter Counter (Coulter Electronics, Hialeah, FL).
The number of wells in each plate will correspond to the number of concentrations per test substances to be evaluated and thus is merely a question of choice or convenience to the user. Into each well, 25 microliter (hereinafter "ul") aliquots of the prepared cell suspension are added using a 1.0 ml syringe fitted with a 19 gauge needle attached to a repetitive Dunn pipetter (Skatron Dispenser). The microtiter plate is then gently shaken to avoid unequal cell distribution within each individual well. The seeded cells are then allowed to attach to the plastic surface of the well proper over a period of 24-72 hours' duration after which the fluid is changed to the experimental maintaining medium.
3 At the time of test, all the seeded cells in each well of the multiwell plate receive 10% heat inactivated--charcoal-dextran human stripped serum (CDHS) in DME at a volume of 0.9 ml per well. Although higher concentrations of CDHS may be utilized up to and including 40% concentrations, the 10% concentration is most preferred.
5. To the other prepared (seeded) wells, 100 ul of the test substance to be evaluated is added as a 10X stock solution to achieve final concentrations ranging from 10^-5 M to at least 10^-12 M. The substance under test is preferably prepared as a stock solution in ethanol, most preferrably as a 10^-3 M solution. All dilutions from the stock preparation are made using DME. The ethanol concentration in the culture medium should be kept below […] by volume. This preparative technique and precaution avoids the need to filter the various volumes of test substance to achieve sterility. This is particularly valuable because steroidal compositions are known to become adsorbed to the commercially obtained filter membranes used for sterilization. The addition of the test substance in appropriate concentrations to the cultured cells and the maintaining medium forms a series of individual reaction mixtures, each of which is varied only by the concentration of the test substance present in the well.
6. After the series of individual reaction mixtures are formed, all of the cultured cells under test in each well of the microtiter plate are incubated at 37° C. preferably in an atmosphere of 5% CO2 /95% air under saturating humidity. During this incubation time, it is desired and preferred that the cultured cells employed in the test be maintained in an atmosphere most advantageous for survival and growth of that cell line. The incubation period preferably is in the range of from 5 to 7 days' duration.

[2] = tested on: 3H-E2 binding in LNCaP cells; assay: Competition with 3H-E2 binding in LNCaP cells; set-up: species or system human
Description: (§1) Steroid receptors measurement: The presence of intracellular sex steroid binding proteins was investigated in whole cell extracts as well as in intact cells. Cytosolic and nuclear extracts were obtained after centrifugation (105,000 g, 45 min.) of a sonicated cellular suspension in TKE buffer (10 mM Tris, 500 mM KCl, 0.5 mM EDTA, pH 7.4). Aliquots of this extract were incubated for 18 hours at 4° C. with increasing concentrations (2×10^- M to 2×10^-8 M) of labelled steroids, with and without a 200-fold excess of the corresponding unlabelled steroid. Bound and free fractions were separated by dextran-coated charcoal adsorption. Intact cells grown in monolayer culture were assayed for specific steroid binding [Olea-Serrano et al., Eur. J. Cancer Clin. Oncol. 21:965-973 (1983)]. Briefly, the cells were incubated in 12-well plates during 50 minutes at 37° C. in DME containing the labelled steroid with and without excess of cold competitor. The range of concentrations used was the same as that in the cytosolic-nuclear extract assay. […] The intracellular radioactivity was extracted with ethanol after ice-cold PBS washing. In both types of experiments, Scatchard analysis of the saturation data was used to quantify the maximal binding capacity (Bmax) and the affinity parameters (dissociation constant, Kd) using the SCAFIT program [Munson et al., Anal. Biochem. 107:220-239 (1980)].

androgen receptor = molecular target: T1, androgen receptor (Homo sapiens, UniProt P10275, T878A); assay: Competition for androgen receptors with 3H-testosterone in LNCaP cytosol-nuclear extracts (RBA); assay type: binding; conditions: for RBA (relative binding affinity to the androgen receptor): Table II, 5α-DHT = 100, 6×10^-9 M 3H-testosterone
T1 construct: the presence of specific androgen receptors in LNCaP cells; endogenous in cells; extract or intact cells for the saturation analysis
Description: as §1
Cytosol-nuclear extracts were used to study competition for androgen receptors. […] The relative binding affinity (RBA) was calculated from the equation: […]

LNCaP cells [3] = assay: Phase 2 protocol for androgen antagonistic properties (LNCaP proliferation with 3×10^-10 M 5α-DHT plus test substance); conditions: for antagonistic activity, in words: Phase 2 protocol
[4] = with 3×10^-10 M 5α-DHT, 10% CDHS

T1 sequence (P10275 whole entry T878A): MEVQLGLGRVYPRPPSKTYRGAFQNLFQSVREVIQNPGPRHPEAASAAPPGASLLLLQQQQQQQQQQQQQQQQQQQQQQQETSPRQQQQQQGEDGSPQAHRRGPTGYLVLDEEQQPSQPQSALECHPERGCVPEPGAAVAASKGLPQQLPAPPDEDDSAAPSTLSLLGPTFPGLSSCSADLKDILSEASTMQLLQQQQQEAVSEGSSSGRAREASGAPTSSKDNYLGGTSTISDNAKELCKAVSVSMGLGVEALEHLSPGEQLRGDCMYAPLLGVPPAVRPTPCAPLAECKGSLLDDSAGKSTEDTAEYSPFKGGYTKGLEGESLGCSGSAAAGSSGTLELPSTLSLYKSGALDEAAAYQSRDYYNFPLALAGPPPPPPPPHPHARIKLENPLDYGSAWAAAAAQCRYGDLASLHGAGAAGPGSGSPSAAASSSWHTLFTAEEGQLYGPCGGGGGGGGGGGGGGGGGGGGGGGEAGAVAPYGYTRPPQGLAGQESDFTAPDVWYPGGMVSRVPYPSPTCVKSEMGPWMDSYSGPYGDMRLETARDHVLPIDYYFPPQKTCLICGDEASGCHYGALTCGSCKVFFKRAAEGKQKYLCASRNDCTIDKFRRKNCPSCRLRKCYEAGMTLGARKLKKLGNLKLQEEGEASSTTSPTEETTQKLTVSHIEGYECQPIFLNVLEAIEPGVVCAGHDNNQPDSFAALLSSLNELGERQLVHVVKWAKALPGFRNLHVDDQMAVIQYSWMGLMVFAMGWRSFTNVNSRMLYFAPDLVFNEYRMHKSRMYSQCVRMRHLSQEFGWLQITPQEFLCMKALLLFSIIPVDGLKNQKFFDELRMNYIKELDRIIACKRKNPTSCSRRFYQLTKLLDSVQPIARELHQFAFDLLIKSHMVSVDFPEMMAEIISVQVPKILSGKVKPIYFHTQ

Row | Compound | CHARACTERISTICS (LNCaP cells [1]) | PHASE 1 CELL COUNT (LNCaP cells [1]) | antagonistic activity, in words (LNCaP cells [3]) | also measured
1 | C[C@]12CC[C@@H](O)C[C@@H]1CC[C@@H]1[C@@H]2CC[C@]2(C)[C@@H](O)CC[C@@H]12 [3α-diol, 5α-androstene, 3α,17β-diol] | full agonist | 2.5 × 10^5 | – | –
2 | C[C@]12CCC(=O)C[C@@H]1CC[C@@H]1[C@@H]2CC[C@]2(C)[C@@H](O)CC[C@@H]12 [5α-DHT, 5α-dihydrotestosterone] | full agonist | 2.5 × 10^5 | – | –
3 | C[C@]12CCC(=O)C[C@H]1CC[C@@H]1[C@@H]2CC[C@]2(C)[C@@H](O)CC[C@@H]12 [5β-DHT, 5β-dihydrotestosterone] | full agonist | 2.5 × 10^5 | – | –
4 | CC/C(=C(/CC)c1ccc(O)cc1)c1ccc(O)cc1 [DES, diethylstilbestrol] | full antagonist | 5 × 10^4 | – | agonistic / proliferative activity, in words (LNCaP cells [1]): no agonistic activity at all; competition with 3H-E2 binding, in words [2]: did not compete
5 | C[C@]12CC[C@@H]3c4ccc(O)cc4CC[C@H]3[C@@H]1CCC2=O [Estrone, estrone] | – | – | – | RBA (relative binding affinity to the androgen receptor) (androgen receptor): 0.1
6 | C[C@]12C[C@H](CCl)[C@@H]3c4ccc(O)cc4CC[C@H]3[C@@H]1CC[C@@H]2O [Org 4333, 11β-chloromethyl estradiol] | full agonists | 4.0 × 10^5 | no antagonistic activity | RBA (relative binding affinity to the androgen receptor) (androgen receptor): 1.2; RELATIVE PROLIFERATIVE POTENCY (LNCaP cells [1]): 0.01
7 | C[C@]1(O)CC[C@H]2[C@@H]3CCC4=CC(=O)CCC4=C3C=C[C@@]21C [R1881, 17β-hydroxy-17α-methyl-estra-4,9,11-trien-3-one] | full agonists | 2.5 × 10^5 | no antagonistic activity | –
8 | CCC(=O)C1(C)CCC2C3CCC4=CC(=O)CCC4=C3CCC21C (stereo not drawn) [R5020, 17βmethyl-,21-methyl-19-nor-pregna-4,9-diene-3,10-dione] | full agonists | 4.0 × 10^5 | no antagonistic activity | RBA (relative binding affinity to the androgen receptor) (androgen receptor): 11; agonistic / proliferative activity, in words (LNCaP cells [1]): effective and potent androgen agonists; RELATIVE PROLIFERATIVE POTENCY (LNCaP cells [1]): 0.01
9 | CC1(C)NC(=O)N(c2ccc([N+](=O)[O-])c(C(F)(F)F)c2)C1=O [anandron, 5,5-dimethyl-3-(4-nitro-3-(trifluoromethyl)-phenyl)-2,4-imidasolidinedione] | full agonist | 4.0 × 10^5 | – | cell yields compared with DHT alone, in words (LNCaP cells [1]): increased cell yields at values consistently above those obtained with DHT alone
10 | CC(=O)O[C@]1(C(C)=O)CC[C@H]2[C@@H]3C=C(Cl)C4=CC(=O)[C@@H]5C[C@@H]5[C@]4(C)[C@H]3CC[C@@]21C [cyproterone acetate] | full agonist | 4.1 × 10^5 | – | cell yields compared with DHT alone, in words (LNCaP cells [1]): increased cell yields at values consistently above those obtained with DHT alone
11 | CC(C)C(=O)Nc1ccc([N+](=O)[O-])c(C(F)(F)F)c1 [flutamide] | quiescent | 5 × 10^4 | – | agonistic / proliferative activity, in words (LNCaP cells [1]): devoid of activity
12 | C[C@]12CCC(=O)C=C1CC[C@@H]1[C@@H]2[C@@H](O)C[C@@]2(C)[C@H]1CC[C@]2(O)C(=O)CO [hydrocortisone] | quiescent | 5 × 10^4 | – | –
13 | CC(C)(O)C(=O)Nc1ccc([N+](=O)[O-])c(C(F)(F)F)c1 [hydroxyflutamide] | full agonist | 3.9 × 10^5 | absence of antagonistic effects | RBA (relative binding affinity to the androgen receptor extracted from LNCaP) (androgen receptor; Table III, Testosterone = 1): 0.004; cell yields compared with DHT alone, in words (LNCaP cells [1]): increased cell yields at values consistently above those obtained with DHT alone; RPP (relative proliferation potency) (LNCaP cells [1]; Table III, Testosterone = 1, 10^5 cell inoculum grown in CDHS for 7 days): 0.01
14 | CC(=O)O[C@]1(C(C)=O)CC[C@H]2[C@@H]3C[C@H](C)C4=CC(=O)CC[C@]4(C)[C@H]3CC[C@@]21C [medroxy progesterone, medroxyprogesterone acetate] | full agonist | 4.0 × 10^5 | absence of antagonistic effects | OPTIMAL TEST CONC. (Phase II) (LNCaP cells [3]): 3 µM; PHASE II CELL COUNT (LNCaP cells [3]): 4.0 × 10^5
15 | C[C@@H]1CC2=CC(=O)CC[C@@H]2[C@H]2CC[C@@]3(C)[C@@H](CC[C@]3(C)O)[C@@H]21 [mibolerone, 7α,17α-dimethyl-19-nortestosterone] | full agonist | 2.5 × 10^5 | – | –
16 | CC(=O)[C@H]1CC[C@H]2[C@@H]3CC=C4C[C@@H](O)CC[C@]4(C)[C@H]3CC[C@]12C [pregnenolone] | full agonist | 3.9 × 10^5 | – | proliferative potency (LNCaP cells [1]; compared with 5α-DHT values): 1%
17 | CC(=O)[C@H]1CC[C@H]2[C@@H]3CCC4=CC(=O)CC[C@]4(C)[C@H]3CC[C@]12C [progesterone] | full agonists | 4 × 10^5 | no antagonistic activity | agonistic / proliferative activity, in words (LNCaP cells [1]): effective and potent androgen agonists
18 | C[C@]12CC[C@H]3[C@@H](CCC4=CC(=O)CC[C@@]43C)[C@@H]1CC[C@@H]2O [testosterone] | full agonist | 2.6 × 10^5 | – | agonistic / proliferative activity, in words (LNCaP cells [1]): proliferative pattern similar to that obtained with 5α-DHT
19 | epidermal growth factor: Epidermal Growth Factor (Collaborative Research; Creative Biomolecules) (NSDSECPLSHDGYCLHDGVCMYIEALDKYACNCVVGYIGERCQYRDLKWWELR; Epidermal growth factor; UniProt P01133 971-1023, looked up) | quiescent | – | – | OPTIMAL TEST CONC. (Phase 1) (LNCaP cells [1]): 100 ng/mL; OPTIMAL TEST CONC. (Phase II) (LNCaP cells [3]; [4]): 100 ng/mL
20 | insulin: Insulin (Eli Lilly Company) | quiescent | 5 × 10^4 | – | OPTIMAL TEST CONC. (Phase 1) (LNCaP cells [1]): 100 ng/mL; OPTIMAL TEST CONC. (Phase II) (LNCaP cells [3]; [4]): 100 ng/mL
